In patent publication US11999732B2, “P2X3 receptor antagonists” (RECORDATI INDUSTRIA CHIMICA E FARMACEUTICA SPA, priority 2018, dated 2024):
Read-outs that look alike come from different tables or passages of the source. Values belong to the compound of their own block, whether it stands above or below them.

Target: T1, human P2X3 receptor (Homo sapiens, UniProt P56373)
T1 construct: expressed in transfected cells; host or cells: CHO-K1
T1 sequence (P56373 1-397): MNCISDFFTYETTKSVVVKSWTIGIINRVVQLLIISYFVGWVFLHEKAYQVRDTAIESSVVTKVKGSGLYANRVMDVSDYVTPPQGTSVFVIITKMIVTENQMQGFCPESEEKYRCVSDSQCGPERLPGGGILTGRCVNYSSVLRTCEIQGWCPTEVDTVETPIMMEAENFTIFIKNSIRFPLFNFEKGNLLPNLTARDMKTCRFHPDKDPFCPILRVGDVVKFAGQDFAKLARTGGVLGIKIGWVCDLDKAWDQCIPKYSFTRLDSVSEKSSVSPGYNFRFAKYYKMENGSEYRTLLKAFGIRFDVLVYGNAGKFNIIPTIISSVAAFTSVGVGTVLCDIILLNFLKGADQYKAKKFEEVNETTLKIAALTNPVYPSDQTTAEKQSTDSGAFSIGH
Experiment: Calcium luminescence (photoprotein) assay in CHO-K1 cells co-expressing human P2X3 receptor, α,β-Met-ATP stimulation, FLEXSTATION readout
Type: cell-based
Conditions: human P2X3 receptor antagonist activity, CHO-K1 cells, α,β-Met-ATP, read-out: h-P2X3 IC50
In short: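 CHO-K1 cells co-expressing human P2X3 and a Ca2+-sensitive photoprotein, loaded with coelenterazine in Tyrode's buffer (pH 7.4) for 4 h at 37 °C. Compounds injected 4 min before α,β-Met-ATP stimulation; luminescence recorded, IC50 and pseudo-Hill slope from nonlinear regression of inhibition curves.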

IC50 (Table 6): 1.25 µM
Structure (SMILES): CCC1CN2C(=O)N(Cc3ccc(OC)cc3)c3cc(N4CCOCC4)cnc3C2=N1 (centres unmarked) [Example 52, 2-ethyl-6-(4-methoxybenzyl)-8-(morpholin-4-y1)-2,6-dihydroimidazo[1,2-c]pyrido[2,3-e]pyrimidin-5(3H)-one]

IC50 (Table 8): 0.234 µM
Structure (SMILES): Cc1ccc(Cc2nn3c(CC4CCCCC4)nnc3c3ncc(N4CCOCC4)cc23)cc1 [Example 137, 3-(cyclohexylmethyl)-6-(4-methylbenzyl)-8-(morpholin-4-yl)pyrido[2,3-d][1,2,4]triazolo[4,3-b]pyridazine]

IC50 (Table 9): 0.495 µM
Structure (SMILES): COc1ccc(Cn2c(=O)n3nc(C(C)(C)C)nc3c3ncc(N4CCOCC4)cc32)cc1 [Example 157, 2-tert-butyl-6-(4-methoxybenzyl)-8-(morpholin-4-yl)pyrido[2,3-e][1,2,4]triazolo[1,5-c]pyrimidin-5(6H)-one]

IC50 (Table 6): 0.0983 µM
Structure (SMILES): COc1ccc(CN2C(=O)N3C(=NC(=O)C3C(C)(C)C)c3ncc(N4CCOCC4)cc32)cc1 (centres unmarked) [Example 69, 3-tert-butyl-6-(4-methoxybenzyl)-8-(morpholin-4-yl)imidazo[1,2-c]pyrido[2,3-e]pyrimidine-2,5(3H,6H)-dione]

IC50 (Table 7): 0.0536 µM
Structure (SMILES): COCC1CN(c2cnc3c(c2)n(Cc2cc(OC)cc(OC)c2)c(=O)n2c(C)c(C(C)C)nc32)C1 [Example 88, 6-(3,5-dimethoxybenzyl)-8-[3-(methoxymethyl)azetidin-1-y1]-3-methyl-2-(propan-2-yl)imidazo[1,2-c]pyrido[2,3-e]pyrimidin-5(6H)-one]

IC50 (Table 6): 0.199 µM
Structure (SMILES): COc1cc(CN2C(=O)N3C(=NCC3c3ccccc3)c3ncc(N4CCOCC4)cc32)cc(OC)c1 (centres unmarked) [Example 47, 6-(3,5-dimethoxybenzyl)-8-(morpholin-4-yl)-3-phenyl-2,6-dihydroimidazo[1,2-c]pyrido[2,3-e]pyrimidin-5(3H)-one]

IC50 (Table 7): 0.257 µM
Structure (SMILES): Cc1noc(C)c1-c1nnc2c3ncc(N4CCOCC4)cc3n(Cc3ccc(Cl)cc3)c(=O)n12 [Example 110, 6-(4-chlorobenzyl)-3-(3,5-dimethyl-1,2-oxazol-4-yl)-8-(morpholin-4-yl)pyrido[2,3-e][1,2,4]triazolo[4,3-c]pyrimidin-5(6H)-one]

IC50 (Table 8): 0.0206 µM
Structure (SMILES): Clc1ccc(Cc2nn3c(CC4CCOCC4)nnc3c3ncc(N4CCOCC4)cc23)cc1 [Example 126, 6-(4-chlorobenzyl)-8-(morpholin-4-yl)-3-(tetrahydro-2H-pyran-4-ylmethyl)pyrido[2,3-d][1,2,4]triazolo[4,3-b]pyridazine]

IC50 (Table 6): 0.278 µM
Structure (SMILES): CCC1CN2C(=O)N(Cc3cc(OC)cc(OC)c3)c3cc(N4CCOCC4)cnc3C2=N1 (centres unmarked) [Example 5, 6-(3,5-dimethoxybenzyl)-2-ethyl-8-(morpholin-4-yl)-2,6-dihydroimidazo[1,2-c]pyrido[2,3-e]pyrimidin-5(3H)-one]

IC50 (Table 7): 0.655 µM
Structure (SMILES): O=c1n(Cc2ccc(Cl)cc2)c2cc(N3CCOCC3)cnc2c2nnc(Cc3cccnc3O)n12 [Example 105, 6-(4-chlorobenzyl)-3-[(2-hydroxypyridin-3-yl)methyl]-8-(morpholin-4-yl)pyrido[2,3-e][1,2,4]triazolo[4,3-c]pyrimidin-5(6H)-one]

IC50 (Table 8): 0.469 µM
Structure (SMILES): COc1cc(Cc2nn3c(CC(C)C)nnc3c3ncc(N4CCOCC4)cc23)cc(OC)c1 [Example 116, 6-(3,5-dimethoxybenzyl)-3-(2-methylpropyl)-8-(morpholin-4-yl)pyrido[2,3-d][1,2,4]triazolo[4,3-b]pyridazine]

IC50 (Table 6): 1.43 µM
Structure (SMILES): CC(C)C1CN2C(=O)N(Cc3ccc(Cl)cc3)c3cc(N4CC5(COC5)C4)cnc3C2=N1 (centres unmarked) [Example 15, 6-(4-chlorobenzyl)-8-(2-oxa-6-azaspiro[3.3]heptan-6-yl)-2-(propan-2-y1)-2,6-dihydroimidazo[1,2-c]pyrido[2,3-e]pyrimidin-5(3H)-one]

IC50 (Table 9): 0.938 µM
Structure (SMILES): CCC1CCN=C2c3ncc(N4CCOCC4)cc3N(Cc3cc(OC)cc(OC)c3)C(=O)N21 (centres unmarked) [Example 151, 5-(3,5-dimethoxybenzyl)-8-ethyl-3-(morpholin-4-yl)-5,8,9,10-tetrahydro-6H-pyrido[2,3-e]pyrimido[1,2-c]pyrimidin-6-one]

IC50 (Table 9): 2.44 µM
Structure (SMILES): COc1cc(CN2C(=O)N3CC(C)(C)CN=C3c3ncc(N4CCOCC4)cc32)cc(OC)c1 [Example 147, 5-(3,5-dimethoxybenzyl)-9,9-dimethyl-3-(morpholin-4-yl)-5,8,9,10-tetrahydro-6H-pyrido[2,3-e]pyrimido[1,2-c]pyrimidin-6-one]

Continued, compound first:

Structure (SMILES): O=C1N2CC(C3CCCCC3)N=C2c2ncc(N3CCOCC3)cc2N1Cc1ccc(Cl)cc1 (centres unmarked) [Example 25, 6-(4-chlorobenzyl)-2-cyclohexyl-8-(morpholin-4-yl)-2,6-dihydroimidazo[1,2-c]pyrido[2,3-e]pyrimidin-5(3H)-one]
IC50 (Table 6): 0.389 µM

Structure (SMILES): O=C1N(Cc2ccc(Cl)cc2)c2cc(N3CCOCC3)cnc2C2=NCC(C3CC3)N12 (centres unmarked) [Example 12, 6-(4-chlorobenzyl)-3-cyclopropyl-8-(morpholin-4-yl)-2,6-dihydroimidazo[1,2-c]pyrido[2,3-e]pyrimidin-5(3H)-one]
IC50 (Table 6): 0.428 µM

Structure (SMILES): CCC1CN2C(=O)N(Cc3ccc(OC)cc3)c3cc(N4CC(COC)C4)cnc3C2=N1 (centres unmarked) [Example 39, 2-ethyl-6-(4-methoxybenzyl)-8-[3-(methoxymethyl)azetidin-1-yl]-2,6-dihydroimidazo[1,2-c]pyrido[2,3-e]pyrimidin-5(3H)-one]
IC50 (Table 6): 5.14 µM

Structure (SMILES): COCC1CN(c2cnc3c(c2)c(Cc2ccc(OC)cc2)nn2c(CC(C)C)nnc32)C1 [Example 124, 6-(4-methoxybenzyl)-8-[3-(methoxymethyl)azetidin-1-yl]-3-(2-methylpropyl)pyrido[2,3-d][1,2,4]triazolo[4,3-b]pyridazine]
IC50 (Table 8): 2.82 µM

Structure (SMILES): COc1ccc(CN2C(=O)N3CC(C(C)C)N=C3c3ncc(N4CC5(COC5)C4)cc32)cc1 (centres unmarked) [Example 19, 6-(4-methoxybenzyl)-8-(2-oxa-6-azaspiro[3.3]heptan-6-yl)-2-(propan-2-yl)-2,6-dihydroimidazo[1,2-c]pyrido[2,3-e]pyrimidin-5(3H)-one]
IC50 (Table 6): 5.51 µM

Structure (SMILES): Cc1c(C(C)C)nc2c3ncc(C(=O)N4CCC(O)CC4)cc3n(Cc3ccc(Cl)cc3)c(=O)n12 [Example 94, 6-(4-chlorobenzyl)-8-[(4-hydroxypiperidin-1-yl)carbonyl]-3-methyl-2-(propan-2-yl)imidazo[1,2-c]pyrido[2,3-e]pyrimidin-5(6H)-one]
IC50 (Table 7): 8.26 µM

Structure (SMILES): COc1ncc2c(n1)c1nnc(C(C)(C)C)n1c(=O)n2Cc1ccc(Cl)cc1 [Example 168, 3-tert-butyl-6-(4-chlorobenzyl)-9-methoxypyrimido[4,5-e][1,2,4]triazolo[4,3-c]pyrimidin-5(6H)-one]
IC50 (Table 9): 1.39 µM

Structure (SMILES): COc1ccc(CN2C(=O)N3C(=NCC3c3ccccc3)c3ncc(N4CCOCC4)cc32)cc1 (centres unmarked) [Example 29, 6-(4-methoxybenzyl)-8-(morpholin-4-yl)-3-phenyl-2,6-dihydroimidazo[1,2-c]pyrido[2,3-e]pyrimidin-5(3H)-one]
IC50 (Table 6): 0.368 µM

Structure (SMILES): COc1cc(Cn2c(=O)n3c(C)nnc3c3ncc(N4CCOCC4)cc32)cc(OC)c1 [Example 101, 6-(3,5-dimethoxybenzyl)-3-methyl-8-(morpholin-4-yl)pyrido[2,3-e][1,2,4]triazolo[4,3-c]pyrimidin-5(6H)-one]
IC50 (Table 7): 2.44 µM

Structure (SMILES): Cc1ccc(Cc2nn3c(CC4CCCCC4)nnc3c3ncccc23)cc1 [Example 136, 3-(cyclohexylmethyl)-6-(4-methylbenzyl)pyrido[2,3-d][1,2,4]triazolo[4,3-b]pyridazine]
IC50 (Table 8): 1.79 µM

Structure (SMILES): COc1cc(CN2C(=O)N3CC(C(C)C)N=C3c3ncc(C(=O)NC4CCOCC4)cc32)cc(OC)c1 (centres unmarked) [Example 58, 6-(3,5-dimethoxybenzyl)-5-oxo-2-(propan-2-yl)-n-(tetrahydro-2H-pyran-4-yl)-2,3,5,6-tetrahydroimidazo[1,2-c]pyrido[2,3-e]pyrimidine-8-carboxamide]
IC50 (Table 6): 9.2 µM

Structure (SMILES): CC(C)Cc1cn2c(=O)n(Cc3ccc(Cl)cc3)c3cc(N4CC5(COC5)C4)cnc3c2n1 [Example 73, 6-(4-chlorobenzyl)-2-(2-methylpropyl)-8-(2-oxa-6-azaspiro[3.3]heptan-6-yl)imidazo[1,2-c]pyrido[2,3-e]pyrimidin-5(6H)-one]
IC50 (Table 7): 0.917 µM

Structure (SMILES): O=C(C1CN=C2c3ncc(N4CCOCC4)cc3N(Cc3ccc(Cl)cc3)C(=O)N21)N1CCOCC1 (centres unmarked) [Example 55, 6-(4-chlorobenzyl)-8-(morpholin-4-y1)-3-(morpholin-4-ylcarbonyl)-2,6-dihydroimidazo[1,2-c]pyrido[2,3-e]pyrimidin-5(3H)-one]
IC50 (Table 6): 2.44 µM

Structure (SMILES): COc1cc(CN2C(=O)N3CC(C)(C)CN=C3c3ncc(NCCO)cc32)cc(OC)c1 [Example 144, 5-(3,5-dimethoxybenzyl)-3-[(2-hydroxyethyl)amino]-9,9-dimethyl-5,8,9,10-tetrahydro-6H-pyrido[2,3-e]pyrimido[1,2-c]pyrimidin-6-one]
IC50 (Table 9): 2.48 µM

Structure (SMILES): COc1cc(CN2C(=O)N3CC(C4CCCCC4)N=C3c3ncc(N4CCOCC4)cc32)cc(OC)c1 (centres unmarked) [Example 43, 2-cyclohexyl-6-(3,5-dimethoxybenzyl)-8-(morpholin-4-yl)-2,6-dihydroimidazo[1,2-c]pyrido[2,3-e]pyrimidin-5(3H)-one]
IC50 (Table 6): 0.112 µM
